Measured values taken from patent publication US8598132B2, “Glycosylated indolocarbazoles, method for obtaining same and uses thereof” (Universidad de Oviedo, priority 2008, dated 2013).

What was measured:
GSK3b = biological target: T1, GSK3b (Homo sapiens, UniProt P49841); experiment: LabChip (Caliper) kinase assay, GSK3b; format: biochemical; details: read-out: remaining kinase activity (in %) / percentage of inhibition; for inhibition at 0.01 µM: compound at 10 nM; for inhibition at 0.1 µM: compound at 100 nM
T1 construct: purchased Carna Biosciences
Experimental: The analysis of kinase activity described here was performed using LabChip (Caliper Life Sciences), specifically the Caliper LC3000 and the EZ Reader II instruments.
The kinase assay used measures the conversion of a fluorescent peptide (substrate) to a phosphorylated product. The reaction mixture, in a microplate well, is introduced by a capillary in a chip where the non-phosphorylated substrate and the phosphorylated product are separated by […]. The intensity of the fluorescent signal over time is related to the reaction progress. The phosphorylated product migrates quicker than the non-phosphorylated substrate and the signals of the two forms of the peptide appear as differentiated peaks. The Caliper determines the peak height and calculates the ratio of product to the peak sum (P/(P+S)). This value is used to compare wells with compounds and wells with controls and thus determine the % of inhibition for the given product.
The followings kinases were used for the enzymatic inhibition studies, between brackets the value of the Michaelis-Menten constant, Km, of the ATP (Adenosine triphosphate) for each kinase, in μM: obtained from Carna Biosciences: MAPKAPK2 (4.6), AurA (3.6), AurB (5), PKCζ (3.8), RSK1 (23.3), PRAK (5), Erk1 (33.4), PKD2 (32.1), CK1d (16.3), CHK1 (33), ABL (61.7), FYN (36), LYNa (17), CHK2 (57.8), MET (79.5), LCK (28.5), SRC (38), GSK3β (7.3), Erk2 (62.1), PKACα (1.7), AKT2 (186.1), INSR (871.8), p38a (396.5), AKT1(48), MSK1 (21.2), PKCβ2 (84.8), ROCK2 (3.3), PIM2 (4.9), AMPK (38.6), KDR (164.8), IRAK4 (196.5), SGK1 (121.8), SYK (33.5); obtained from Invitrogen: CDK2 (57.6), BTK (123), HGK (80); obtained from Upstate: MST2 (36.6), PKGα (16), PAK2 (1.9), IGF1R (320), FGFR1 (171), MARK1 (33), CAMK2δ (22.4), c-TAK1 (66), DYRK1a (18.1), CaMK4 (3.9), FLT3 (350), c-Raf (6.2), P70S6K (95).
The compounds were dissolved in 100% DMSO and were diluted at 25 times the final concentration desired for the assay. In the case of the determination of Cl50, serial dilutions were made to reach eight concentrations and give rise to the inhibition curve. 1 μL of each concentration is transferred, in duplicate to a 384-well microplate. 12 μL of enzymatic buffer is added to each well containing purified kinase (several suppliers as indicated above), 100 mM HEPES, pH 7.5, 1 mM DTT (Calbiochem), 0.002% Brij-35 (Sigma) and also in presence of 10 mM MgCl2 as cofactor, except for INSR and IRAK4 wherein 10 mM MnCl2 is used instead of MgCl2. For the kinases CAMK26 and CAMK4, 1 mM CaCl2 and 6.7 μg/mL of calmodulin are also added. For KDR kinase, 0.05% of the CHAPSO detergent is added. For the c-Raf kinase, 10 mM MnCl2 is added. For PKCβ2 0.02 μg/mL of PS/PMA is added. For PKGα se 10 μM of cGMP (cyclic guanosine monophosphate) is added. The compound and the enzyme are left for 15 minutes preincubation and, then, the following are added to each well: 12 μL of peptide buffer/ATP containing 100 mM HEPES, pH 7.5, 1.5 μM peptide marker with fluorescein (specific for the corresponding kinase), ATP (at concentration KM), and 0.002% Brij-35 to start the reaction. Generally, the reactions are incubated for 1-1.5 h at ambient temperature to obtain an adequate conversion (15-40%) of the peptide to the phosphorylated product. The reactions were ended by the addition of 45 μL of buffer containing 0 mM EDTA. The microplates were read by the LabChip 3000 using a 12-channel LabChip. The P/(P+S) values were obtained as described above and the CI50 curves were generated using XIfit. […]

A549 (lung) = experiment: SRB anti-tumour (growth inhibition) assay, A549; format: cell-based; details: Homo sapiens, 48 h exposure, read-out: GI50 (concentration inhibiting 50% of cell growth)
Experimental: The compounds generated were tested against a series of cell lines from tumours. It quantitatively determined the cell growth and the viability, using a colorimetric assay type, using the reaction with sulforhodamine B (SRB), according to the technique described by Faircloth et al. (Journal of Tissue and Culture Methods 1988, 11, 201-205).
96-well microtitre plates are inoculated with cells (5×10^3 cells per well) in aliquots of 195 μl of medium, incubating them during 18 h, in a medium without added compound, to allow the cells to adhere to the surface. Next, the compounds to be tested are added, in samples of 5 μl, at a range of concentrations of 10 to 10^−8 μg/ml, dissolved in DMSO/EtOH (0.2% in PS buffer). After 48 h exposure, the anti-tumour effect is measured using the Sulforhodamine B (SRB) technique: the cells are fixed adding 50 μl of cold […] (50%) (w/v) and it is incubated for 60 min. at 4° C. The plates are washed with deionized water and dried. 100 μl of SRB solution (0.4% w/v in 1% acetic acid) to each well and it is incubated during 10 min. at ambient temperature. The non-bound SRB is eliminated, washing with 1% acetic acid. The plates are air dried and the bound colorant is dissolved with Tris buffer. The optical densities are read in an automatic plate spectrophotometer reader at a wavelength of 490 nm.
For the compounds of formula (III), (IV), (V), (VI), (VII), (VIII), (IX) and the compounds of formula (XII), (XIII), (XIV), (XV), (XVI) and (XVIII).

T1 sequence (P49841 whole entry): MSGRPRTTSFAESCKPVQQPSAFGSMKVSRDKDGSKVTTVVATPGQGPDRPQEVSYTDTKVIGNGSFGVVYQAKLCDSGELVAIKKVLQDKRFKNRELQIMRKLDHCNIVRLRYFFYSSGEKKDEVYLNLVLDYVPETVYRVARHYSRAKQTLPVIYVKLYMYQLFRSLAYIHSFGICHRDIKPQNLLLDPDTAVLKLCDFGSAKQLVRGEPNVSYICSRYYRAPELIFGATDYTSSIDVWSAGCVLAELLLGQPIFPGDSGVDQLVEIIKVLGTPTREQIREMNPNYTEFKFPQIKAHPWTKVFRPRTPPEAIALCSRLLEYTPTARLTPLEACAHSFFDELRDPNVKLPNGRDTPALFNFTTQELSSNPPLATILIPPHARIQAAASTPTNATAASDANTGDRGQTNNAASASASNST

Row | Compound | inhibition at 0.01 µM (GSK3b) [%] | inhibition at 0.1 µM (GSK3b) [%] | GI50 (A549 (lung)) [µM]
1 | C[C@@H]1O[C@@H](n2c3ccccc3c3c4c(c5c6ccccc6[nH]c5c32)C(=O)NC4=O)[C@H](O)[C@H](O)[C@H]1O [formula (III), N^13-1′-β-L-rhamnosylarcyriaflavin] | 21 | 72 | 4.18
2 | C[C@@H]1O[C@@H](n2c3ccccc3c3c4c(c5c6ccccc6[nH]c5c32)C(=O)NC4=O)C[C@H](O)[C@H]1O [formula (IV), N^13-1′-β-L-olivosylarcyriaflavin] | 21 | 69 | 8.79
3 | C[C@]12O[C@H](C[C@@H](O)[C@H]1O)n1c3ccccc3c3c4c(c5c6ccccc6n2c5c31)C(=O)NC4=O [formula (IX), N^12-5′(S)-N^13-1′-(R)-L-digitoxosylarcyriaflavin] | – | – | 5.51
4 | C[C@@H]1O[C@@H](n2c3ccccc3c3c4c(c5c6ccccc6[nH]c5c32)C(=O)NC4=O)C[C@@H](O)[C@H]1O [formula (V), N^13-1′-β-L-digitoxosylarcyriaflavin] | 42 | 81 | 4.41
5 | C[C@H]1O[C@@H](n2c3ccccc3c3c4c(c5c6ccccc6[nH]c5c32)C(=O)NC4=O)C[C@@H](O)[C@@H]1O [formula (VI), N^13-1′-β-D-olivosylarcyriaflavin] | 18 | 69 | 2.21
6 | C[C@]12O[C@H]([C@H](O)[C@H](O)[C@H]1O)n1c3ccccc3c3c4c(c5c6ccccc6n2c5c31)C(=O)NC4=O [formula (VII), N^12-5′(S)-N^13-1′-(R)-L-rhamnosylarcyriaflavin] | – | – | 2.04
7 | C[C@]12O[C@H](C[C@H](O)[C@H]1O)n1c3ccccc3c3c4c(c5c6ccccc6n2c5c31)C(=O)NC4=O [formula (VIII), N^12-5′(S)-N^13-1′-(R)-L-olivosylarcyriaflavin] | – | – | 5.73
8 | C[C@@H]1O[C@@H](n2c3ccccc3c3c4c(c5c6ccccc6[nH]c5c32)CNC4=O)[C@H](O)[C@H](O)[C@H]1O [formula (XII), N^13-1′-β-L-rhamnosyl-k252c] | 3 | 8 | 2.84
9 | C[C@@H]1O[C@@H](n2c3ccccc3c3c4c(c5c6ccccc6[nH]c5c32)CNC4=O)C[C@H](O)[C@H]1O [formula (XIII), N^13-1′-β-L-olivosyl-k252c] | 2 | 9 | 1.56
10 | C[C@@H]1O[C@@H](n2c3ccccc3c3c4c(c5c6ccccc6[nH]c5c32)CNC4=O)C[C@@H](O)[C@H]1O [formula (XIV), N^13-1′-β-L-digitoxosyl-k252c] | 1 | 7 | 3.4
11 | C[C@H]1O[C@@H](n2c3ccccc3c3c4c(c5c6ccccc6[nH]c5c32)CNC4=O)C[C@@H](O)[C@@H]1O [formula (XV), N^13-1′-β-D-olivosyl-k252c] | 0 | 0 | 4.98
12 | C[C@]12O[C@H]([C@H](O)[C@H](O)[C@H]1O)n1c3ccccc3c3c4c(c5c6ccccc6n2c5c31)CNC4=O [formula (XVI), N^12-5′(S)-N^13-1′-(R)-L-rhamnosyl-k252c] | – | – | 0.61
13 | C[C@]12O[C@H](C[C@H](O)[C@H]1O)n1c3ccccc3c3c4c(c5c6ccccc6n2c5c31)CNC4=O [formula (XVII), N^12-5′(S)-N^13-1′-(R)-L-olivosyl-k252c] | – | – | 1.02
14 | C[C@]12O[C@H](C[C@@H](O)[C@H]1O)n1c3ccccc3c3c4c(c5c6ccccc6n2c5c31)CNC4=O [formula (XVIII), N^12-5′(S)-N^13-1′-(R)-L-digitoxosyl-k252c] | – | – | 1.96
